From patent US11739098B2 (BRISTOL-MYERS SQUIBB COMPANY, priority 2017, dated 2023) come the findings set out here.

Structures can show the parent of a compound that is named as a salt.

Common to all, as to assay type: cell-based
One assay concerns the target T1, human TLR8 (Homo sapiens, UniProt Q9NR97).
T1 construct: host or cells: HEK-Blue cells (HEK293-derived reporter line)
T1 sequence (Q9NR97 27-1041): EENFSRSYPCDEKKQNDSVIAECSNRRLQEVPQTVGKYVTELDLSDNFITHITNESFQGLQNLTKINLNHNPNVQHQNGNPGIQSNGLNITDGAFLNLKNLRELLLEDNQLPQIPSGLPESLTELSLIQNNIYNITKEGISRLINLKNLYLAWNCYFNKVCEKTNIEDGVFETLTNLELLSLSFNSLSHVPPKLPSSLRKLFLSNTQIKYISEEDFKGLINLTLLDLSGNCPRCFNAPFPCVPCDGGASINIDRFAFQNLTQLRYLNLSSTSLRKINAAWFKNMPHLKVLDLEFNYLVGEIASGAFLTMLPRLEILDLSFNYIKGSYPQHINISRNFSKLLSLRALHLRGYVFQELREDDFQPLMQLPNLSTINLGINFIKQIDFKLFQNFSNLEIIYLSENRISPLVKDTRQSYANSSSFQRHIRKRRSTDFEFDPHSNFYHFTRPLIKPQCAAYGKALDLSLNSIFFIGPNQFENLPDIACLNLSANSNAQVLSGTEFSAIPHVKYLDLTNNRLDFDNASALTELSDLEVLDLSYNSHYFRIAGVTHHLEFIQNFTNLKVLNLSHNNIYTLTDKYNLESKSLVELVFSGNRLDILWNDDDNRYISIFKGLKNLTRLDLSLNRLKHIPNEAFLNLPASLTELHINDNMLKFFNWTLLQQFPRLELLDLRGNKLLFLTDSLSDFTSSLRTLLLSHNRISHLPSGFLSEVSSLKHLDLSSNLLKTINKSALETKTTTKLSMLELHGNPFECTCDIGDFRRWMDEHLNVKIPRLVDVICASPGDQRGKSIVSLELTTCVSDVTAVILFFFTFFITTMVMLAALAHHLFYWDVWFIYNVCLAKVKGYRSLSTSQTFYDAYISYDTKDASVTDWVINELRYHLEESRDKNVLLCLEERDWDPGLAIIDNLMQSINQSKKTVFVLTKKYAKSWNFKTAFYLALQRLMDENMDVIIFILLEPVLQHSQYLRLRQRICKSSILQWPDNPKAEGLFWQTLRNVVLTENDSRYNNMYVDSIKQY
Briefly: TLR8 inhibition reporter assay (HEK-Blue cells, SEAP reporter, R848 stimulation). Particulars: HEK-Blue cells overexpressing human TLR8, SEAP reporter, R848 15.9 μM. The essentials: (§1)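 HEK-Blue cells overexpressing human TLR7, TLR8 or TLR9 (NF-κB/AP-1-driven SEAP) pre-treated 30 min at room temperature with compound (0.05 nM–50 μM), then stimulated with gardiquimod 7.5 μM (TLR7), R848 15.9 μM (TLR8) or ODN2006 5 nM (TLR9). SEAP read colorimetrically after 22 h at 37 °C; % inhibition calculated.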
For orientation: Reporter assays use an easily measured gene product as a stand-in for the process of interest.

The target in another assay is T2, human TLR9 (Homo sapiens, UniProt Q9NR96).
T2 construct: host or cells: HEK-Blue cells (HEK293-derived reporter line)
T2 sequence (Q9NR96 26-1032): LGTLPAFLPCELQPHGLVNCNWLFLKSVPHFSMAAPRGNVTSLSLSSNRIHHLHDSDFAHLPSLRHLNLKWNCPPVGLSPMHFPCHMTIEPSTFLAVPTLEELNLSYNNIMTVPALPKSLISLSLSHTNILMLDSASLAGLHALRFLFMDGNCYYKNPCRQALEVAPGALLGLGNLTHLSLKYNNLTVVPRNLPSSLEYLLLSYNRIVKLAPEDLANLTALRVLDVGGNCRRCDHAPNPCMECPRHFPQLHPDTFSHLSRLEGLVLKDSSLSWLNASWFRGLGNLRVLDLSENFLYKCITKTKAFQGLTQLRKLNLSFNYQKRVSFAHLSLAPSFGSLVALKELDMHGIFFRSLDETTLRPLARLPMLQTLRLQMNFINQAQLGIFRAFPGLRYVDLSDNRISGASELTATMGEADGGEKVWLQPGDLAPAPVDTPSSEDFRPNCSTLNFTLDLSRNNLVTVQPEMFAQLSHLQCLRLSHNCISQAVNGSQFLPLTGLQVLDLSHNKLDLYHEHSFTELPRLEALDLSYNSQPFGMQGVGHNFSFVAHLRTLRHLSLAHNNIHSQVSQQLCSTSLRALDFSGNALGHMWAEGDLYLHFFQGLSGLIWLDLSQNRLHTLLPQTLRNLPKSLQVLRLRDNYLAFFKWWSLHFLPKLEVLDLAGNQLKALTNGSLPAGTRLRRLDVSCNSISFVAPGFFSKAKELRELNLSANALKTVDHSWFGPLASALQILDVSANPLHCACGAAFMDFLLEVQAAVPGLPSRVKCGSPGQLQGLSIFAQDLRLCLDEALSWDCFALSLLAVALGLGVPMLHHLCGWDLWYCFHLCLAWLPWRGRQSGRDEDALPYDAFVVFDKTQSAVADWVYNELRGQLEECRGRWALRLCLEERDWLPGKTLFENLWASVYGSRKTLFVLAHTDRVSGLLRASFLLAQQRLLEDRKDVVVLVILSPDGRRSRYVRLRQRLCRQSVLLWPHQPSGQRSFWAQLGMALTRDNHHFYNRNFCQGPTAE
Kind of assay: TLR9 inhibition reporter assay (HEK-Blue cells, SEAP reporter, ODN2006 stimulation). Particulars: HEK-Blue cells overexpressing human TLR9, SEAP reporter, ODN2006 5 nM. The gist of the method:
as §1

The next assay addresses T3, human TLR7 (Homo sapiens, UniProt Q9NYK1).
T3 construct: host or cells: HEK-Blue cells (HEK293-derived reporter line)
T3 sequence (Q9NYK1 27-1049): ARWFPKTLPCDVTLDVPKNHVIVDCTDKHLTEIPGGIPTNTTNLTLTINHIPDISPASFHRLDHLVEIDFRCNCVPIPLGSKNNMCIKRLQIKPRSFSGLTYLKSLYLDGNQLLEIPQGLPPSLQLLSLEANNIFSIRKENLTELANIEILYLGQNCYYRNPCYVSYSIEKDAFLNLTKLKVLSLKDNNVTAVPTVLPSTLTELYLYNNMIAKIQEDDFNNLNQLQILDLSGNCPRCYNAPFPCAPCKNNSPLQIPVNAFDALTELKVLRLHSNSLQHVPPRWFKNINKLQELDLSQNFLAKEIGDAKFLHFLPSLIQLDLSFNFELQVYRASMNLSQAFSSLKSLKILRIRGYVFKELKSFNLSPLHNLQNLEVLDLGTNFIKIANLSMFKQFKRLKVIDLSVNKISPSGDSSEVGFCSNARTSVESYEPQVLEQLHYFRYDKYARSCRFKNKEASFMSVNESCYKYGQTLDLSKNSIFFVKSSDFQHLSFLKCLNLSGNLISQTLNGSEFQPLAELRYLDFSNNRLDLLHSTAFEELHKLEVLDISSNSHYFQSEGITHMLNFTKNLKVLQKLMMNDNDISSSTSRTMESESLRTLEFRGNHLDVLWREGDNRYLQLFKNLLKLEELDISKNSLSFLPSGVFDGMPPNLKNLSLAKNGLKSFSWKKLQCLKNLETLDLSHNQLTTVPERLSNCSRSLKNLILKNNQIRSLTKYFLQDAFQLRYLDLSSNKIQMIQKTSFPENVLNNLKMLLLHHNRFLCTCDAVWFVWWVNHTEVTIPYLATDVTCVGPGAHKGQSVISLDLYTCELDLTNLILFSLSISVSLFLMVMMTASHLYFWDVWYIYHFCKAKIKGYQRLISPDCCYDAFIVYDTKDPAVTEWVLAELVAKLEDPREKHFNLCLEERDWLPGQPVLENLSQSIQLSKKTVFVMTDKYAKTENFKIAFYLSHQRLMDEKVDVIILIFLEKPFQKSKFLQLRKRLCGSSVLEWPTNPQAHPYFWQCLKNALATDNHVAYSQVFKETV
Briefly: TLR7 inhibition reporter assay (HEK-Blue cells, SEAP reporter, gardiquimod stimulation). Particulars: HEK-Blue cells overexpressing human TLR7, SEAP reporter, gardiquimod 7.5 μM. The gist of the method: as §1

As for `Cc1cc(-c2[nH]c3ccc(C4CCN(C(=O)CN(C)C(C)(C)C)CC4)cc3c2C(C)C)cn2nnnc12` [Example 481, 2-(tert-butyl(methyl)amino)-1-(4-(3-isopropyl-2-(8-methyltetrazolo[1,5-a]pyridin-6-yl)-1H-indol-5-yl)piperidin-1-yl)ethan-1-one], the IC50 against human TLR8 is less than 100 nM; on human TLR9 it was 1000 to 50000 nM; against human TLR7, less than 100 nM.

For the compound `Cc1nnn2ccc(-c3[nH]c4ccc(C5CCN(C(=O)CN(C)C)CC5)cc4c3C(C)C)cc12` [Example 487, 2-(dimethylamino)-1-(4-(3-isopropyl-2-(3-methyl-[1,2,3]triazolo[1,5-a]pyridin-5-yl)-1H-indol-5-yl)piperidin-1-yl)ethan-1-one], the figures for the IC50 against human TLR8, at human TLR9 and on human TLR7 were less than 100 nM, 1000 to 50000 nM and less than 100 nM, respectively.

For `CC(C)c1c(-c2ccnc3[nH]ncc23)[nH]c2ccc(C3CCN(Cc4ccccn4)CC3)cc12` [Example 866, 4-(3-isopropyl-5-(1-(pyridin-2-ylmethyl)piperidin-4-yl)-1H-indol-2-yl)-1H-pyrazolo[3,4-b]pyridine], the IC50 was less than 100 nM at human TLR8, 1000 to 50000 nM at human TLR9 and less than 100 nM against human TLR7.

Turning to `Cc1cc(-c2[nH]c3ccc(C4CCN(CC(C)(C)O)CC4)cc3c2C(C)C)cn2nnnc12` [Example 745, 1-(4-(3-isopropyl-2-(8-methyltetrazolo[1,5-a]pyridin-6-yl)-1H-indol-5-yl)piperidin-1-yl)-2-methylpropan-2-ol, TFA], the IC50 was less than 100 nM against human TLR8, 1000 to 50000 nM against human TLR9 and less than 100 nM against human TLR7.

As for `CC(C)c1c(-c2ccc3ncnn3n2)[nH]c2ccc(C3CCN(CC(C)(C)O)CC3)cc12` [Example 746, 1-(4-(2-([1,2,4]triazolo[1,5-b]pyridazin-6-yl)-3-isopropyl-1H-indol-5-yl)piperidin-1-yl)-2-methylpropan-2-ol], the half-maximal inhibitory concentration (IC50) against human TLR8 is less than 100 nM; at human TLR9, 1000 to 50000 nM; at human TLR7, less than 100 nM.

As for `Cc1c(-c2[nH]c3ccc(C4CCN(CC(=O)N(C)C)CC4)cc3c2C(C)C)nn2ncnc2c1C` [Example 280, 2-(4-(2-(7,8-dimethyl-[1,2,4]triazolo[1,5-b]pyridazin-6-yl)-3-isopropyl-1H-indol-5-yl)piperidin-1-yl)-N,N-dimethylacetamide], the results for the IC50 on human TLR8, against human TLR9 and against human TLR7 were less than 100 nM, 1000 to 50000 nM and less than 100 nM, respectively.

For `Cc1cc(-c2[nH]c3ccc(C4CCN(C5CCOCC5)CC4)cc3c2C(C)C)cn2ccnc12` [Example 705, 6-(3-isopropyl-5-(1-(tetrahydro-2H-pyran-4-yl)piperidin-4-yl)-1H-indol-2-yl)-8-methylimidazo[1,2-a]pyridine], the IC50 is less than 100 nM on human TLR8, 100 to 1000 nM on human TLR9 and less than 100 nM at human TLR7.

For the compound `CC(C)c1c(-c2ccnc3[nH]ncc23)[nH]c2ccc(C3CCN(CCCN4CCOCC4)CC3)cc12` [Example 857, 4-(3-(4-(3-isopropyl-2-(1H-pyrazolo[3,4-b]pyridin-4-yl)-1H-indol-5-yl)piperidin-1-yl)propyl)morpholine], the results for the concentration for half-maximal inhibition (IC50) at human TLR8, at human TLR9 and at human TLR7 were 1000 to 50000 nM, 100 to 1000 nM and 1000 to 50000 nM, respectively.

Consider `CC(C)c1c(-c2cc(F)c3nccn3c2)[nH]c2ccc(C3CCN(C(=O)CN(C)C)CC3)cc12` [Example 544, 2-(dimethylamino)-1-(4-(2-(8-fluoroimidazo[1,2-a]pyridin-6-yl)-3-isopropyl-1H-indol-5-yl)piperidin-1-yl)ethan-1-one], for which the figures for the 50% inhibitory concentration (IC50) against human TLR8, on human TLR9 and against human TLR7 were less than 100 nM, 1000 to 50000 nM and less than 100 nM, respectively.

Regarding `Cc1cc(-c2[nH]c3ccc(C4CCN(C(=O)CN5CCC(F)CC5)CC4)cc3c2C(C)C)cn2nnnc12` [Example 474, 2-(4-fluoropiperidin-1-yl)-1-(4-(3-isopropyl-2-(8-methyltetrazolo[1,5-a]pyridin-6-yl)-1H-indol-5-yl)piperidin-1-yl) ethan-1-one], the half-inhibitory concentration (IC50) was less than 100 nM against human TLR8, 1000 to 50000 nM against human TLR9 and less than 100 nM at human TLR7.

Consider `Cc1c(-c2ccnc3cc[nH]c23)[nH]c2ccc(C3CCNCC3)cc12` [Example 23, 7-(3-methyl-5-(piperidin-4-yl)-1H-indol-2-yl)-1H-pyrrolo[3,2-b]pyridine], for which the figures for the 50% inhibitory concentration (IC50) against human TLR8, against human TLR9 and at human TLR7 were less than 100 nM, 100 to 1000 nM and less than 100 nM, respectively.

As for `Cc1cc(-c2[nH]c3ccc(C4CCN(CC(C)C)CC4)cc3c2C(C)C)cc2[nH]cnc12` [Example 955, 6-(5-(1-isobutylpiperidin-4-yl)-3-isopropyl-1H-indol-2-yl)-4-methyl-1H-benzo[d]imidazole], the figures for the concentration for half-maximal inhibition (IC50) against human TLR8, against human TLR9 and at human TLR7 were less than 100 nM, 100 to 1000 nM and less than 100 nM, respectively.

One may read the IC50 as the concentration at which inhibition is half-maximal.
